The source of these data is patent US9556179B2 (BRISTOL-MYERS SQUIBB COMPANY, priority 2012, dated 2017).

One experiment deals with pancreatic tumor cell. The following applies: in vitro and in vivo; Brockschmidt et al., Gut 2008; cited from earlier work.
The target of a further experiment is CK1δ (Homo sapiens (Human), UniProt P48730). The experiment in a line: CK1δ kinase assay (Caliper LABCHIP electrophoretic separation of fluoresceinated peptide substrate and product). Format: biochemical. The following applies: 200 pM enzyme, 50 μM ATP, 22 hours at room temperature. In a few lines:
(§1)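 Reactions ran 22 hours at room temperature and were stopped with EDTA. Phosphorylated product and unphosphorylated substrate were then separated electrophoretically. Compounds were tested at eleven concentrations, and IC50 values came from non-linear regression.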

Another experiment addresses CK1ε (Homo sapiens (Human), UniProt P49674). The experiment in a line: CK1ε kinase assay (Caliper LABCHIP electrophoretic separation of fluoresceinated peptide substrate and product). Format: biochemical. The following applies: 200 pM enzyme, 50 μM ATP, 22 hours at room temperature. Put shortly: as §1

Chain of CK1ε (P49674 whole entry): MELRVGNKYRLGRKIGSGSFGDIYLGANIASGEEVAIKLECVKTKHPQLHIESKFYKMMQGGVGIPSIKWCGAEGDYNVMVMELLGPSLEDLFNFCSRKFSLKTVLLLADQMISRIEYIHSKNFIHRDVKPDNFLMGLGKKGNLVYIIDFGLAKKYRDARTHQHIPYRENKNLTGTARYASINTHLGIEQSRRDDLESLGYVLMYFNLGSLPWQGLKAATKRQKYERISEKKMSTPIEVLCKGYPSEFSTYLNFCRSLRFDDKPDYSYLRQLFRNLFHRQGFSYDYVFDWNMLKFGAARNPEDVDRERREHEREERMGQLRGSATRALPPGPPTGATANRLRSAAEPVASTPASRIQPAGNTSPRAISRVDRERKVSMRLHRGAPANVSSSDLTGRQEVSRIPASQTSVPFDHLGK
Chain of CK1δ (P48730 whole entry): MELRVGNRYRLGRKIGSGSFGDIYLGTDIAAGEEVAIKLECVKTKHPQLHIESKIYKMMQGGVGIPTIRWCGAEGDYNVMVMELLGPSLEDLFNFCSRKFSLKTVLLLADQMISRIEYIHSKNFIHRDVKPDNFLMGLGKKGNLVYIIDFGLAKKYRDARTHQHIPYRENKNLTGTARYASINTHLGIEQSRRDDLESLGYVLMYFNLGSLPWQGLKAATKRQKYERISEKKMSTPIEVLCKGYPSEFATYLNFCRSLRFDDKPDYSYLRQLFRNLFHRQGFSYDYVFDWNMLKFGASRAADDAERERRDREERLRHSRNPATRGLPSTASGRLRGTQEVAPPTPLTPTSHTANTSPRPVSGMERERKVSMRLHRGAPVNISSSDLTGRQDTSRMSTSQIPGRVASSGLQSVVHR

`COc1cc(OC)c(C=C2C(O)=Nc3ccccc32)c(OC)c1` [IC261]: the “pancreatic tumor cell growth” value in the experiment with pancreatic tumor cell was “reduces pancreatic tumor cell growth in vitro and in vivo”.

The IC50 is the concentration that gives 50% inhibition. In the case of `O=C(Nc1cn2nc(-c3c(-c4ccc(F)cc4)ncn3-c3cccnc3)ccc2n1)c1cc(F)nc(F)c1` [Compound 423, 2,6-Difluoro-N-(6-(4-(4-fluorophenyl)-1-(pyridin-3-yl)-1H-imidazol-5-yl)imidazo[1,2-b]pyridazin-2-yl)isonicotinamide], the IC50 against CK1δ came out at 1.1 nM; against CK1ε, 18 nM.

For `CC(C)COC(=O)N1CCC(n2cnc(-c3ccc(F)cc3)c2-c2ccc3nc(NC(=O)c4ccnc(F)c4)cn3n2)CC1` [Compound 79, isobutyl 4-(5-(2-(2-fluoroisonicotinamido)imidazo[1,2-b]pyridazin-6-yl)-4-(4-fluorophenyl)-1H-imidazol-1-yl)piperidine-1-carboxylate], the half-inhibitory concentration (IC50) came out at 0.376 nM against CK1δ and 1.91 nM against CK1ε.

Consider `Cc1nc(-c2cccnc2)sc1C(=O)Nc1cn2nc(-c3c(-c4ccc(F)cc4)ncn3C3CCN(C(=O)c4ccon4)CC3)ccc2n1` [Compound 101, N-(6-(4-(4-fluorophenyl)-1-(1-(isoxazole-3-carbonyl)piperidin-4-yl)-1H-imidazol-5-yl)imidazo[1,2-b]pyridazin-2-yl)-4-methyl-2-(pyridin-3-yl)thiazole-5-carboxamide], for which the results for the IC50 against CK1δ and against CK1ε were 0.334 nM and 1.24 nM, respectively.
